{"source": "paper PMC10489073", "about": "(Molecules, 2023)", "key": {"[1]": {"system": "subcutaneous P3x63Ag8.653 tumor", "experiment": "In vivo P3x63Ag8.653 tumor transplant model", "design": "species or system mice", "conditions": "0.05 mmol/kg oral, two weeks", "description": "The animal experiments were conducted under the guidelines of the “Regulations for the Administration of Affairs Concerning Experimental Animals” (revised 2017, State Council No. 676). For the P3x63Ag8.653 tumor development, male mice were subcutaneously injected with 200 μL murine P3x63Ag8.653 cells with a density of 1 × 10^7/mL. On the eighth day after injection, the transplanted mice were randomized into treatment and control groups. The tested compounds were administrated orally at the prescribed dose biweekly for two weeks. After two weeks of administration, mice were executed, and the tumor tissues were dissected and weighed. T/C was calculated according to the following formula: T/C = the mean RTV of the treated group/the mean RTV of the control group, where RTV is the relative tumor volume = Vt/V0 (Vt, the tumor volume measured at the end of treatment; V0, the tumor volume measured at the beginning of treatment)."}, "[2]": {"target": "T1, chymotrypsin-like (CT-L) activity of the 20S proteasome (Homo sapiens, UniProt P20618+P28074)", "T1 construct": "purchased R&D systems, Minneapolis, MN, USA", "experiment": "20S proteasome inhibition assay (Proteasome-Glo Chymotrypsin-Like)", "type": "biochemical", "conditions": "n ≥ 3, SD <20% of the mean, read-out: IC50 toward Chymotrypsin-like (CT-L)", "description": "The 20S proteasome inhibition assay was performed using the Proteasome-Glo™ Chymotrypsin-Like Assay kit (Promega, Alexandria, NSW, Australia). Suc-LLVY-aminoluciferin is a substate that can be cleaved by the 20S proteasome, release the […] (aminoluciferin) and allow the luciferase reaction to produce light. Gradient concentration of tested compounds and the purified 20S proteasome enzyme (R&D systems, Minneapolis, MN, USA) were successively added into a transparent 96-well plate and mixed thoroughly. Then, 50 µL of a […] reagent was added. Gently mix contents with a plate shaker at 300 to 500 rpm for 30 s. Incubate at room temperature for an hour. The luminescence was recorded via the Tecan Spark multimode microplate."}, "P3x63Ag8.653": {"system": "P3x63Ag8.653", "experiment": "Cell proliferation analysis (MTT)", "type": "cell-based, murine", "conditions": "Mus musculus, 48 h, read-out: Anti-proliferative activity IC50, P3x63Ag8.653", "description": "(§1) All tumor cell lines in the current research were grown in a certain growth medium containing 10% FBS and 1% (v/v/v) penicillin–streptomycin–amphotericin at 37 °C in 5% CO2. Cells were seeded into 96-well plates at a density of 8 × 10^3 cells per well for tumor adherent cells and 2 × 10^4 cells per well for tumor-suspended cells in a final volume of 100 μL. After 12 h, 100 μL of various concentrations of compounds was added to each and incubated for 48 h. A 0.5% MTT solution was added per well before the intermixture was incubated for another 4 h, and formazan formed from MTT was extracted by adding […] of DMSO rocking for 15 min. Absorbance was measured at 570 nm using a Spark multimode microplate from Tecan. The IC50 values were calculated according to the inhibition ratios."}, "Hela": {"system": "Hela", "experiment": "Cell proliferation analysis (MTT)", "type": "cell-based", "conditions": "Homo sapiens, 48 h, read-out: Anti-proliferative activity IC50, Hela", "description": "as §1"}, "PC3": {"system": "PC3", "experiment": "Cell proliferation analysis (MTT)", "type": "cell-based", "conditions": "Homo sapiens, PC-3, 48 h, read-out: Anti-proliferative activity IC50, PC3", "description": "as §1"}, "U251": {"system": "U251", "experiment": "Cell proliferation analysis (MTT)", "type": "cell-based", "conditions": "Homo sapiens, U-251, 48 h, read-out: Anti-proliferative activity IC50, U251", "description": "as §1"}, "A2780": {"system": "A2780", "experiment": "Cell proliferation analysis (MTT)", "type": "cell-based", "conditions": "Homo sapiens, 48 h, read-out: Anti-proliferative activity IC50, A2780", "description": "as §1"}, "MDA-MB-231": {"system": "MDA-MB-231", "experiment": "Cell proliferation analysis (MTT)", "type": "cell-based", "conditions": "Homo sapiens, 48 h, read-out: Anti-proliferative activity IC50, MDA-MB-231", "description": "as §1"}, "U266": {"system": "U266", "experiment": "Cell proliferation analysis (MTT)", "type": "cell-based", "conditions": "Homo sapiens, U-266, 48 h, read-out: Anti-proliferative activity IC50, U266", "description": "as §1"}, "SP2": {"system": "SP2", "experiment": "Cell proliferation analysis (MTT)", "type": "cell-based", "conditions": "48 h, read-out: Anti-proliferative activity IC50, SP2", "description": "as §1"}, "KG1": {"system": "KG1", "experiment": "Cell proliferation analysis (MTT)", "type": "cell-based", "conditions": "Homo sapiens, KG-1, 48 h, read-out: Anti-proliferative activity IC50, KG1", "description": "as §1"}, "HCT116": {"system": "HCT116", "experiment": "Cell proliferation analysis (MTT)", "type": "cell-based", "conditions": "Homo sapiens, HCT-116, 48 h, read-out: Anti-proliferative activity IC50, HCT116", "description": "as §1"}, "ARP-1": {"system": "ARP-1", "experiment": "Cell proliferation analysis (MTT)", "type": "cell-based", "conditions": "48 h, read-out: Anti-proliferative activity IC50, ARP-1", "description": "as §1"}, "RPMI-8266": {"system": "RPMI-8266", "experiment": "Cell proliferation analysis (MTT)", "type": "cell-based", "conditions": "RPMI8266, 48 h, read-out: Anti-proliferative activity IC50, RPMI-8266", "description": "as §1"}, "MM.1S": {"system": "MM.1S", "experiment": "Cell proliferation analysis (MTT)", "type": "cell-based", "conditions": "Homo sapiens, MM1.S, 48 h, read-out: Anti-proliferative activity IC50, MM.1S", "description": "as §1"}, "HT-29": {"system": "HT-29", "experiment": "Cell proliferation analysis (MTT)", "type": "cell-based", "conditions": "Homo sapiens, 48 h, read-out: Anti-proliferative activity IC50, HT-29", "description": "as §1"}, "HEL": {"system": "HEL", "experiment": "Cell proliferation analysis (MTT)", "type": "cell-based", "conditions": "Homo sapiens, 48 h, read-out: Anti-proliferative activity IC50, HEL", "description": "as §1"}, "[3]": {"conditions": "high concentrations up to 1 mM; cited from earlier work"}, "HEK293": {"system": "HEK293", "experiment": "Cell proliferation analysis (MTT), normal cells", "type": "cell-based", "conditions": "Homo sapiens, non-malignant cell line, 48 h, read-out: Anti-proliferative activity IC50, HEK293", "description": "as §1"}, "HL-7702": {"system": "HL-7702", "experiment": "Cell proliferation analysis (MTT), normal cells", "type": "cell-based", "conditions": "Homo sapiens, L02, non-malignant cell line, 48 h, read-out: Anti-proliferative activity IC50, HL-7702", "description": "as §1"}}, "data": [{"smiles": "CC(C)C[C@H](NC(=O)[C@@H](O)[C@H](N)Cc1ccccc1)C(=O)O", "note": "[Ubenimex]", "values": [{"measurement": "anti-tumor activity", "setting": "[1]", "result": "moderate anti-tumor activity"}, {"measurement": "IC50", "setting": "[2]", "result": "> 10", "unit": "µM"}, {"measurement": "IC50", "setting": "P3x63Ag8.653", "result": "> 200", "unit": "µM"}, {"measurement": "IC50", "setting": "Hela", "result": "> 200", "unit": "µM"}, {"measurement": "IC50", "setting": "PC3", "result": "> 200", "unit": "µM"}, {"measurement": "IC50", "setting": "U251", "result": "> 200", "unit": "µM"}, {"measurement": "IC50", "setting": "A2780", "result": "> 200", "unit": "µM"}, {"measurement": "IC50", "setting": "MDA-MB-231", "result": "> 200", "unit": "µM"}, {"measurement": "IC50", "setting": "U266", "result": "> 200", "unit": "µM"}, {"measurement": "IC50", "setting": "SP2", "result": "> 200", "unit": "µM"}, {"measurement": "IC50", "setting": "KG1", "result": "> 200", "unit": "µM"}, {"measurement": "IC50", "setting": "HCT116", "result": "> 200", "unit": "µM"}, {"measurement": "IC50", "setting": "ARP-1", "result": "> 200", "unit": "µM"}, {"measurement": "IC50", "setting": "RPMI-8266", "result": "> 200", "unit": "µM"}, {"measurement": "IC50", "setting": "MM.1S", "result": "> 200", "unit": "µM"}, {"measurement": "IC50", "setting": "HT-29", "result": "> 200", "unit": "µM"}, {"measurement": "IC50", "setting": "HEL", "result": "> 200", "unit": "µM"}, {"measurement": "anti-proliferation activity", "setting": "[3]", "result": "not apparent"}, {"measurement": "IC50", "setting": "HEK293", "result": "> 200", "unit": "µM"}, {"measurement": "IC50", "setting": "HL-7702", "result": "> 200", "unit": "µM"}]}]}
